Results: US4987128A, “Novel 10β-alkynyl-steroids” (Roussel Uclaf, priority 1986, dated 1991)

Molecular target: T1, mineralo-corticoid receptor of the rat kidney (Rattus norvegicus, UniProt P22199)
T1 construct: The kidneys were then removed, decapsulated and homogenized at 0° C; from tissue; host or cells: kidney of adrenalectomized male Sprague-Dawley EOPS rats, 105,000 g supernatant (cytosol)
T1 sequence (P22199 1-981): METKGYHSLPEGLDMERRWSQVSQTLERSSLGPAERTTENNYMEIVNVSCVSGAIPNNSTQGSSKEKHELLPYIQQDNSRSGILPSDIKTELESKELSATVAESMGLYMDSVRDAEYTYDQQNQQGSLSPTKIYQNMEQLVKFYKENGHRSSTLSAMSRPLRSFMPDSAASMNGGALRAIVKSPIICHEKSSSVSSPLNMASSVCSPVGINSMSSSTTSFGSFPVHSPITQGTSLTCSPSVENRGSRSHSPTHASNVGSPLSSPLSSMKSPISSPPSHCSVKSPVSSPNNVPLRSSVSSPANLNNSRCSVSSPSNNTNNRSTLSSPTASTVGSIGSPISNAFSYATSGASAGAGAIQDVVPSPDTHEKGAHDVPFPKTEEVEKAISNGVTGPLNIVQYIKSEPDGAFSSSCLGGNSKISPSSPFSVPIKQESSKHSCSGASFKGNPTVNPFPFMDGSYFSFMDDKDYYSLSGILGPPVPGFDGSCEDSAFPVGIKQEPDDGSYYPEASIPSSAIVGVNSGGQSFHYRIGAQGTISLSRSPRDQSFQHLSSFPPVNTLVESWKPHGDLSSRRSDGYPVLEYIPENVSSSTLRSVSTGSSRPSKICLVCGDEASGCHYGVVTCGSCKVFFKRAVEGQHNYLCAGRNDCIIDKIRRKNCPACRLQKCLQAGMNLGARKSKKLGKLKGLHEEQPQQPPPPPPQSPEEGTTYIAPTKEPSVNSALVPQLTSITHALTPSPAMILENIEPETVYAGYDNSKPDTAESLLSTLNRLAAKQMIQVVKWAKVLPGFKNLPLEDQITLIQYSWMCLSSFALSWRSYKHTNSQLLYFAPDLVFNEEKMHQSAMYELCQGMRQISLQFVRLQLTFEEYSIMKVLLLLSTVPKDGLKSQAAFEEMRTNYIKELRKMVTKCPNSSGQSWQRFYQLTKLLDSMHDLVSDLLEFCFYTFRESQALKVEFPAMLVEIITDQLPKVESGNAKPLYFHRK
Test: Anti-aldosterone activity: displacement of tritiated aldosterone from the mineralo-corticoid receptor of the rat kidney (relative liaison affinity)
Type: binding
Details: vs cold aldosterone as reference hormone, rat kidney cytosol
Protocol: Study of the anti-aldosterone activity of the mineralo-corticoid receptor of the rat kidney
Male Sprague-Dawley EOPS rats weighing 140 to 160 g, suprarenalectomized 4 to 6 days earlier, were killed and their kidneys were perfused in situ with 50 ml of Tris 10 mM-saccharose 0.25M buffer, HCl pH 7.4. The kidneys were then removed, decapsulated and homogenized at 0° C. with a Potter polytetrafluoroethylene glass (1 g of tissue for 3 ml of buffer). The homogenate was centrifuged for 10 minutes at 800 g at 0° C. To eliminate the fixation of the tritiated aldosterone on the glucocorticoid receptor, 11β,17β-dihydroxy-17α-(1-propynyl)-Δ^1,4,6 -androstatrien-3-one which fixes uniquely on the glucocorticoid receptor was added to the supernatant at a final concentration of 10^-6 M. This supernatant was ultracentrifuged at 105,000 g for 60 minutes at 0° C. and aliquots of the supernatant were incubated at 0° C. with a constant concentration (T) of tritiated aldosterone in the presence of increasing concentrations (0-2500×10^-9 M) of cold aldosterone or of the cold product under study. After an incubation time (t), the concentration of tritiated aldosterone bound (B) was measured by the technique of adsorption on charcoal-dextran.
The calculation of the relative liaison affinity (RLA) was carried out as follows: The two following curves were drawn: the percentage of tritiated hormone bonded B/T as a function of the logarithm of the concentration of the cold reference hormone, and B/T as a function of the logarithm of the concentration of the cold product under test. The straight line of the equation I50 =(B/T max+B/T min)/2 was determine B/T max=percentage of the tritiated hormone bonded for an incubation of this triated hormone at the concentration (T), B/T min=percentage of the tritiated hormone bonded for an incubation of this tritiated hormone at the concentration (T) in the presence of a great excess of cold hormone (2500.10^-9 M). The intersections of the straight line I50 and the curves enabled the concentrations of the cold reference hormone (CH) and of the cold product tested (CX) to be evaluated which inhibited by 50% the bonding of the tritiated hormone on the receptor. The relative liaison affinity (RAL) of the product tested is determined by the equation: [formula] The following results were obtained;

[1] = incubation time at 0° C.: 1 hour
[2] = incubation time at 0° C.: 24 hours

| Structure (SMILES) | relative liaison affinity (RLA) [1] | relative liaison affinity (RLA) [2] |
| --- | --- | --- |
| C#C[C@]12CCC(=O)C=C1CC[C@@H]1[C@@H]2CC[C@@]2(C)[C@H]1CC[C@@]21CCC(=O)O1 [Example 1, Gamma-lactone of 10β-ethynyl-17β-hydroxy-3-oxo-19-nor-17α-Δ^4-pregnen 21-carboxylic acid] | 125 | 65 |
| CC#C[C@]12CCC(=O)C=C1CC[C@@H]1[C@@H]2CC[C@@]2(C)[C@H]1CC[C@@]21CCC(=O)O1 [Example 3, γ-lactone of 17β-hydroxy-3-oxo-10β-(1-propynyl)-19-nor-17α-Δ^4-pregnene-21-carboxylic acid] | 50 | 43 |
